Key:
[1] = dimethyl isosorbate as solvent; cited from earlier work
[2] = pH of KSA / KASA formulas; type: physicochemical
Protocol: In 50 ml water, 37 gms KOH are mixed with 76 gms SA. […] Administration is by gradual ingestion by sipping. A much higher dose of 2 gm KSA can be administered as needed using two 1 gm doses separated by an interval of time so that the doses overlap closely.
An example of a topical KSA is as follows: Using the supersaturated KSA formula of Example 1, a topical formula was prepared as follows: 225 ml Aloe Vera Gel was mixed with 2½ ml liquid castile soap (Dr. Bronner's was used), and 2½ ml vegetable glycerin. Dry ingredients of 900 mg citric acid, 600 mg guar gum and 14 gm dehydrated KSA are separately mixed.

[3] = 1 gm dehydrated product mixed with 225 ml water

## CC(=O)Oc1ccccc1C(=O)O [ASA, acetylsalicylic acid]
[1]
  concentration of ASA achieved in solution: 280 mg of ASA/ml

## CC(=O)Oc1ccccc1C(=O)[O-].[K+] [KASA, potassium acetylsalicyclic acid]
[2]; [3]
  pH: 8.42

## O=C(O)c1ccccc1O.[K] [KSA, potassium salicylic acid]
[2]; [3]
  pH: 8.90
[2]; concentrated solution as prepared, before dehydration
  pH: 12.0-13.0

Reference: USRE38576E1, “Stabilized aspirin compositions and method of preparation for oral and topical use” (priority 2000, dated 2004)
